# Test results published in US9763442B2, “In situ generation of peroxycarboxylic acids at alkaline pH, and methods of use thereof” (priority 2010, dated 2017).
# How the values were obtained:
# [1] = Coupling of precipitated aqueous POOA by surfactants/hydrotropes; assay type: physicochemical; settings: 1000 ppm POOA in DI Water
# Experimental: A variety of surfactants were analyzed for coupling and/or dispersion stabilizing of a peroxycarboxylic acid composition generated according to the methods of the invention. In particular, a peroxyoctanoic acid (POOA) composition in deionized water produced according to the invention was analyzed for coupling and/or dispersion stabilization using the dispersing agents set forth in Table 14A.
# Given the very limited water solubility of POOA in its protonated form, acidification of the alkaline perhydrolysis solutions of the same causes immediate precipitation and rapid phase separation. In this example various surfactants and hydrotropes were evaluated for their ability to couple the POOA. In Table 14A it can be seen that the most efficient agents for coupling an already precipitated solution of POOA were samples I and II.
# [2] = Dispersion stability of acidified POOA solutions with dispersing agents; assay type: physicochemical; settings: acidified POOA solution, 10,000 ppm H2SO4; oil sheen = fail
# Experimental: The SLS, LAS and SOA dispersing agents were then further examined for efficacy in stabilizing and/or dispersing in 1% or lower sulfuric acid solutions. […] Solution 13 was made as 1 through 12 with the addition of 50 mL of 5 grain hard water to the aliquot of alkaline reaction solution followed by swirling with the surface aliquot and then additional 50 mL of 5 grain hard water, followed within about 5 seconds by 50 mL of 5 grain 2% sulfuric acid and swirled. Solution 14 was made by direct addition of 1% sulfuric acid (5 grain) without pre-dilution, but after moments of swirling with SLS aliquot. All concentrations are shown in ppm. […] The appearance of an oil sheen was regarded as a pass or fail.
Compound,Amount of (B) Required for Coupling [1] [g/200 g aq POOA],Amount of (B) Required for Coupling ([1]; listed as LAS) [g/200 g aq POOA],oil sheen at 23 h [2]
"CCCCCCCCCCCCOS(=O)(=O)[O-].[Na+] [I, Sodium Lauryl Sulfate]",0.64,,
"CCCCCCCCS(=O)(=O)[O-].[Na+] [VII, Sodium octanesulfonate]",6.60,,
"CCCCC(CC)COC(=O)CC(C(=O)OCC(CC)CCCC)S(=O)(=O)[O-].[Na+] (centres unmarked) [X, Sodium dioctyl Sulfosuccinates]",>2.0,,
Alkyl Polyglycosides [VI],2.46,,
Linear Aryl Sulfonate [II],0.65,0.64,minimal surface oil
Sodium Lauryl Ether Sulfate [III],>0.94,,
